Assay results: ChEMBL document CHEMBL1201862, “PubChem BioAssay data set” (2004)
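Test compounds were applied to cells in 96-well plates for 48 hours at 5 doses. Abbreviation: GI50, concentration required for 50% inhibition of growth.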 The source made the active and inactive calls. Rule as the data show it: active = GI50 up to about 1.1 µM and inactive = higher.

What was measured:
Assay in all cases: NCI-60 cell line screen, 48 h
MDA-MB-435 = test system: MDA-MB-435
CAKI-1 = test system: CAKI-1
U-251 = test system: U-251
CCRF-CEM = test system: CCRF-CEM
NCI/ADR-RES = test system: NCI/ADR-RES
TK-10 = test system: TK-10
OVCAR-4 = test system: OVCAR-4
HOP-62 = test system: HOP-62
SF-268 = test system: SF-268
SK-MEL-5 = test system: SK-MEL-5
SR = test system: SR
A498 = test system: A498
HOP-92 = test system: HOP-92
SF-295 = test system: SF-295
MOLT-4 = test system: MOLT-4
OVCAR-8 = test system: OVCAR-8
LOX IMVI = test system: LOX IMVI
SN12C = test system: SN12C
HL-60 = test system: HL-60
NCI-H23 = test system: NCI-H23

Measured: GI50

CC1=CC[C@@]2(C)CC[C@](O)(C(C)C)C2C(OC(=O)c2ccccc2)C1 (stereo partly drawn)
inactive: MDA-MB-435 36.1 µM | CAKI-1 21.1 µM | U-251 27.8 µM | CCRF-CEM 23 µM | NCI/ADR-RES 19.7 µM | TK-10 18.3 µM | OVCAR-4 25 µM | HOP-62 18 µM | SF-268 23.2 µM | SK-MEL-5 18.3 µM | SR 31.7 µM | A498 24.4 µM | HOP-92 15.1 µM | SF-295 15.6 µM | MOLT-4 17.1 µM | OVCAR-8 19.4 µM | LOX IMVI 19.4 µM | SN12C 23.6 µM | HL-60 28.9 µM | NCI-H23 18.5 µM

CC(C)(C)c1ccc(OCCOc2ccc(C(C)(C)C)cc2N)c(N)c1
inactive: MDA-MB-435 > 100 µM | CAKI-1 > 100 µM | U-251 17.1 µM | CCRF-CEM 22.9 µM | NCI/ADR-RES 48.8 µM | TK-10 69.3 µM | OVCAR-4 20 µM | HOP-62 > 100 µM | SF-268 > 100 µM | SK-MEL-5 > 100 µM | SR > 100 µM | A498 18.3 µM | HOP-92 17.4 µM | SF-295 > 100 µM | MOLT-4 > 100 µM | OVCAR-8 29.9 µM | LOX IMVI 27.8 µM | SN12C > 100 µM | HL-60 > 100 µM | NCI-H23 27.6 µM

COc1cccc2cc(C(=O)NC34CC5CC(CC(C5)C3)C4)c(=N)oc12
inactive: MDA-MB-435 > 82.4 µM | CAKI-1 99.5 µM | U-251 55.3 µM | CCRF-CEM 8.04 µM | NCI/ADR-RES > 86.1 µM | TK-10 64 µM | OVCAR-4 > 60.4 µM | HOP-62 53.1 µM | SF-268 78.9 µM | SK-MEL-5 > 69.2 µM | SR 10.2 µM | A498 > 100 µM | HOP-92 > 36.2 µM | SF-295 68.5 µM | MOLT-4 1.35 µM | OVCAR-8 23.8 µM | LOX IMVI > 52.8 µM | SN12C > 100 µM | HL-60 3.13 µM | NCI-H23 > 100 µM

CCN1CCN(c2ccc(Nc3ccnc4ccc5c(nnn5C)c34)cc2)CC1
inactive: MDA-MB-435 5.46 µM | CAKI-1 5.48 µM | U-251 5.69 µM | CCRF-CEM 4.6 µM | NCI/ADR-RES 9.14 µM | TK-10 15.3 µM | OVCAR-4 7.23 µM | HOP-62 5.05 µM | SF-268 6.46 µM | SK-MEL-5 11 µM | SR 2.51 µM | A498 14.8 µM | HOP-92 4.8 µM | SF-295 8.2 µM | MOLT-4 4.45 µM | OVCAR-8 13.1 µM | LOX IMVI 3.14 µM | SN12C 3.53 µM | HL-60 4.94 µM | NCI-H23 11.6 µM

COc1ccc(C(=O)/C=C/c2ccncc2)cc1OC
inactive: MDA-MB-435 14.8 µM | CAKI-1 15.7 µM | U-251 11.2 µM | CCRF-CEM 4.02 µM | NCI/ADR-RES 19.7 µM | TK-10 16.4 µM | OVCAR-4 11 µM | HOP-62 16.3 µM | SF-268 13.7 µM | SK-MEL-5 16.4 µM | SR 6.49 µM | A498 17.1 µM | HOP-92 14.1 µM | SF-295 16.1 µM | MOLT-4 8.32 µM | OVCAR-8 15.3 µM | LOX IMVI 1.47 µM | SN12C 15.8 µM | HL-60 2.04 µM | NCI-H23 10.7 µM

O=C1Nc2ccccc2/C1=N/NC(=S)Nc1ccc(Cl)cc1
inactive: MDA-MB-435 39.8 µM | CAKI-1 11.3 µM | U-251 23.2 µM | CCRF-CEM 22.8 µM | NCI/ADR-RES 12.1 µM | TK-10 16.1 µM | OVCAR-4 30.4 µM | HOP-62 34.8 µM | SF-268 31.6 µM | SK-MEL-5 17.2 µM | SR 10.8 µM | A498 18.3 µM | HOP-92 51.4 µM | SF-295 23.7 µM | MOLT-4 26.1 µM | OVCAR-8 18.2 µM | LOX IMVI 27.7 µM | SN12C 29.3 µM | HL-60 39 µM | NCI-H23 57.4 µM

COC(=O)C1=C(C)NC(C)=C(C(=O)OC)C1c1ccccc1NO
inactive: MDA-MB-435 47.2 µM | CAKI-1 > 100 µM | U-251 > 100 µM | CCRF-CEM 68.5 µM | NCI/ADR-RES > 100 µM | TK-10 > 100 µM | OVCAR-4 > 100 µM | HOP-62 > 100 µM | SF-268 > 100 µM | SK-MEL-5 > 100 µM | SR 28.4 µM | A498 > 100 µM | HOP-92 > 100 µM | SF-295 > 100 µM | MOLT-4 27.4 µM | OVCAR-8 > 100 µM | LOX IMVI 40 µM | SN12C > 100 µM | HL-60 > 100 µM | NCI-H23 > 100 µM

N#Cc1ccc(OC(=O)c2ccc(NC(=N)N)cc2)cc1.c1ccncc1
inactive: MDA-MB-435 67.8 µM | CAKI-1 80 µM | U-251 61.2 µM | CCRF-CEM 22.2 µM | NCI/ADR-RES > 100 µM | TK-10 > 100 µM | OVCAR-4 > 100 µM | HOP-62 > 100 µM | SF-268 51.1 µM | SK-MEL-5 > 100 µM | SR 51.9 µM | A498 > 100 µM | HOP-92 93.5 µM | SF-295 > 100 µM | MOLT-4 38.5 µM | OVCAR-8 > 100 µM | LOX IMVI 80.7 µM | SN12C 63.2 µM | HL-60 60.1 µM | NCI-H23 > 100 µM

Cc1cc(S(=O)(=O)NC2=Nc3cccc(F)c3CN2)c(S)cc1Cl
inactive: MDA-MB-435 68.9 µM | CAKI-1 > 100 µM | U-251 44.5 µM | CCRF-CEM 57.4 µM | NCI/ADR-RES 49.4 µM | TK-10 > 100 µM | OVCAR-4 68.1 µM | SF-268 76.9 µM | SK-MEL-5 22 µM | SR 48.5 µM | A498 > 100 µM | HOP-92 > 100 µM | SF-295 30.1 µM | MOLT-4 49.3 µM | OVCAR-8 61 µM | LOX IMVI 50.9 µM | SN12C > 100 µM | HL-60 96.8 µM

Cc1cc2c(=O)[nH]nc(N)c2c(N)n1
inactive: MDA-MB-435 > 100 µM | CAKI-1 > 100 µM | U-251 > 100 µM | CCRF-CEM > 100 µM | NCI/ADR-RES > 100 µM | TK-10 > 100 µM | OVCAR-4 > 100 µM | HOP-62 > 100 µM | SF-268 > 100 µM | SK-MEL-5 > 100 µM | SR > 100 µM | A498 > 100 µM | HOP-92 > 100 µM | SF-295 > 100 µM | MOLT-4 > 100 µM | OVCAR-8 > 100 µM | LOX IMVI > 100 µM | SN12C > 100 µM | HL-60 > 100 µM | NCI-H23 > 100 µM
